Laboratory results: US20240358678A1, “METHODS AND COMPOSITIONS FOR ENHANCING CHEMOTHERAPEUTIC DRUG UPTAKE INTO BRAIN TUMORS” (Brown University, priority 2023, published 2024)
Entries after “also recorded” stand apart in the source; their conditions may differ.

How the values were obtained:
[1] = system: patient-derived GBM neuro-spheres; experiment: GBM neuro-sphere cell viability assay (Cell-Titer Glo 3D), BIA and cisplatin; assay type: cell-based, human; settings: BIA 1 μM, 5 days
Protocol: Cell viability assay: Cells were plated at a density of 1500 cells/well in black-well clear bottom 96-well plates and left growing in culture conditions overnight. Next day, cells were treated with titrating doses of the indicated compounds. For BIA only cytotoxicity studies, cells were incubated with BIA for 96 hours. For BIA and cisplatin combinatorial studies, cells were incubated with BIA and cisplatin, and corresponding controls, for 5 days. Next, we used the Cell-Titer Glo 3D (Promega) following provider's guidelines and quantified for luminescence signal using a Molecular Devices SpectraMax M2 plate reader. Conditions were repeated in triplicates.

HCMEC/D3 cells [2] = experiment: Cell cycle analysis via flow cytometry of HCMEC/D3; assay type: cell-based, human; settings: BIA 0.5 μM or 1 μM
Protocol: Flow cytometry for cell cycle, DNA damage and apoptosis assays: For cell cycle analysis, 100,000 HCMEC/D3 cells were plated in 6-well plates and treated with indicated concentrations of BIA or control for 48 hours. Then, cells were washed twice with PBS and fixed/permeabilized with 5 mL of cold 70% ethanol added dropped-wise while vortexing at low speed. Cells were stored for 1 day at −20 degrees Celsius, washed three times with PBS and treated with 20 μg/mL RNAse I (Thermo Fisher Scientific) and stained with anti-Ki-67 FITC-conjugated (1:1000) (BD Biosystems) and 1.5 μM propidium iodide (Thermo Fisher Scientific). Amer 30 minutes of incubation in the dark, cells were analyzed using a CytoFLEX system (Beckman Coulter). 50,000 events were counted, and data was analyzed using the CytoFLEX system software (Beckman Coulter).

HCMEC/D3 cells [3] = experiment: Secretome (Luminex cytokine) quantification; assay type: cell-based, human; settings: BIA 48 hours
Protocol: Secretome quantification: For cytokine analysis of brain endothelial cells after BIA exposure, HCMEC/D3 cells were plated at a density of 500,000 cells/well in a 6-well plate. Cells were treated with indicated doses of BIA or DMSO for 48 hours. Then, 1 mL of media was collected and processed for cytokine quantification in a Luminex platform (Thermo Fischer Scientific) following the provider's instructions.

[4] = system: hCMEC/D3 brain microvascular endothelial cells; experiment: ECIS electrical impedance of endothelial monolayers (Example 1); assay type: cell-based, human; settings: BiA 1 μM, p<0.05
Protocol: Electrical Impedance Measurements: Human Brain microvascular endothelial cell (purchased from Sciencell) monolayers were plated on special culture chambers on top of opposing circular gold electrodes (Applied Biophysics Inc). Impedance was automatically recorded during cell monolayer formation.
The in vitro effects of indirubin on endothelial monolayer permeability were also assess using Electric Cell-substrate Impedance Sensing (ECIS®) to provide a real-time, label-free, impedance-based study of cell behaviors in tissue culture. BiA (1 μM) was added to endothelial monolayers in an ECIS impedance measurement culture system (Applied Physics).

[5] = system: human brain microvascular endothelial cell monolayers; experiment: RNA sequencing of HBMEC monolayers (Example 3); assay type: cell-based; settings: BiA 1 μM, 24 hours
Protocol: RNA Sequencing (RNAseq): RNA sequencing was performed by the Dana Faber molecular biology core according to their standard methods. RNA was prepared from human brain microvascular endothelial cell monolayers after 24 hours treatment with BiA. EXAMPLE 1 EFFECT OF INDIRUBIN ON THE BLOOD-TUMOR BARRIER (BTB)
In order to assess changes in gene expression profiles induced by alterations to barrier functions induced by indirubin, RNA sequencing was performed RNA prepared from human brain microvascular endothelial cell monolayers after 24 hours treatment with BiA. HBMEC monolayers were treated with BiA (1 μM) for 24 hours and gene expression profiles compared with untreated controls.

HCMEC/D3 cells [6] = experiment: Visual assessment (brightfield) of HCMEC/D3 cells; assay type: cell-based, human; settings: BIA 72 hours; elongated phenotype with long filipodia
HCMEC/D3 cells [7] = experiment: Western blot of HCMEC/D3 cells; assay type: cell-based, human
Protocol: Western blot: HCMEC/D3 and GBM cell lysates were collected in RIPA Buffer (Thermo Fisher Scientific) supplemented with 1× protease/phosphatase inhibitor cocktail (Cell Signaling). Lysate collection from murine tumor tissue samples (˜30 mg) was performed under homogenization using 23G and 26G needles. Total protein concentration was measured using Pierce 660 nm Protein Assay Reagent (Thermo Fisher Scientific) at 660 nm absorbance in Molecular Devices SpectraMax M2 plate reader. Samples were incubated in 1× Laemmli sample buffer (BioRad) at 95 degrees Celsius for 5 minutes before loading onto 10% Mini-PROTEAN TGX precast protein gel (BioRad). PageRuler Plus Pre-stained Protein Ladder (Thermo Fisher Scientific) was used as ladder. Appropriate secondary antibodies, Goat anti-mouse-HRP (Sigma) or Goat anti-rabbit-HRP (Sigma) in 5% milk in 1×TBST with 1:5000 dilution.

G34 GBM cells = experiment: Real-time PCR in G34-PCDH neurosphere GBM cells; assay type: cell-based, human; settings: BIA 2 μM, 24 hours
Protocol: Real-time PCR: Total RNA from GBM and HCMEC/D3 cells was obtained and processed as indicated above. For cDNA generation, we used 1 μg of RNA and processed with the iScript™ cDNA synthesis kit (BioRad), following the protocol indicated by the provider. All primers were designed using NCBI Primer-Blast tool. Detailed information on primer sequences can be found in FIG. 25 (Supplementary Table 3). Gene expression levels were quantified using PowerUp SYBR Green Master Mix (Applied Biosciences) on QuantStudio 6 Pro System (Applied Biosciences), normalized by housekeeping gene GAPDH expression and represented as relative expression using comparative ΔΔCT method.

HBMEC cells = experiment: Trans-endothelial electrical resistance (TEER) of HBMEC monolayers; assay type: cell-based, human
Protocol: Trans-endothelial electrical resistance: HCMEC/D3 or HBMEC cells were plated in 8W10E+ PET 8-well arrays (Applied Biophysics) at a density of 100,000 cells/well in 500 μl. These arrays were placed in a pre-stabilized ECIS Z-Theta instrument (Applied Biophysics). Using the ECIS Z-Theta software (Applied Biophysics), measurements were set to 4000 and 64000 Hz every 30 minutes. […] Cells would then be treated with BIA and left to grow up to 5 days, with frequent drug-containing media re-addition for maintenance of the culture. Resistance (W) and capacitance (nF) were recorded and plotted.

CC(=O)ON=C1C(=C2C(=O)Nc3cc(Br)ccc32)Nc2ccccc21 [BIA, 6-bromoindirubin acetoxime]
cell viability, BIA single-treatment [1]: reduced the cell viability of cells mildly
cell cycle states (HCMEC/D3 cells [2]): slight decreased G1 and M states
CCL2 secretion (HCMEC/D3 cells [3]): significant downregulation
cytokine secretion profile (TNF-α, IFNg, IL-17A, IL6, IL-1b, prolactin, CCL8, CCL4) (HCMEC/D3 cells [3]): pro-inflammatory secretion profile
trans-endothelial electrical resistance / impedance [4]: significantly decrease trans-endothelial electrical resistance; also recorded: diminishes electrical impedance
gene expression pathways (TGF-β, Wnt signaling, angiogenesis/BTB) [5]: alteration to major pathways
signs of apoptosis or necrosis by visual assessment (HCMEC/D3 cells [6]): did not show signs of apoptosis or necrosis
time of maximum reduction of CDH5 protein levels post-BIA addition (HCMEC/D3 cells [7]; 1 μM BIA, remained for 2 days): 12 h
protein levels of CAV1 or MFSD2A (HCMEC/D3 cells [7]; BIA 1 μM, 48 hours): did not show any changes of protein levels
CDH5 expression (G34 GBM cells): reduced the expression
WNT7B and S1PR3 expression (G34 GBM cells): diminishment
barrier establishment (TEER), BIA added 24 hours after plating (HBMEC cells): prevented barrier establishment
